According to patent US20110212475A1, “Fluorescently Or Spin-Labeled Kinases For Rapid Screening And Identification Of Novel Kinase Inhibitor Scaffolds” (priority 2008, published 2011):

Tests used:
[1] = molecular target: T1, p38α (Homo sapiens, UniProt Q16539, A172C/C119S/C162S/F327L); assay: HTS screen with acrylodan-labeled p38α, 384-well secondary screen for Kd; format: binding; conditions: compounds HTS 1-15
T1 construct: His-tag with PreScission site (N, cleaved yes); GST (N); made in house; host or cells: E. coli BL21(DE3)
T1 sequence (Q16539 whole entry C119S/C162S/A172C/F327L): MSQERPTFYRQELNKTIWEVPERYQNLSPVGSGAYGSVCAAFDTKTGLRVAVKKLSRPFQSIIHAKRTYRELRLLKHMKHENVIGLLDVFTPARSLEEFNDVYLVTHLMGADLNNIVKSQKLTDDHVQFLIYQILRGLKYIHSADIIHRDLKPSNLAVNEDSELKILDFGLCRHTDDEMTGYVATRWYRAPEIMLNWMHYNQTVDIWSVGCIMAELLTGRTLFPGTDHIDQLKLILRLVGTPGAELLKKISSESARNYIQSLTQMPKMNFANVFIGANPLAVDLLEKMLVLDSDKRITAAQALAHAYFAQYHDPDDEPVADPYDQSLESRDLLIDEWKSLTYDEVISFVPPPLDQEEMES
Method: The complete screen was carried out by first using the labeled kinase binding assay in a 384-well HTS format to initially screen for possible ligands for the DFG-out conformation, or DFG-out binders. This was accomplished by first performing a primary screen at a single concentration of each ligand, followed by a secondary screen over a range of concentrations to directly determine the Kd of each potential hit.
The methods for the setup and execution of the screen are provided below. […] Large volumes of the same buffer were also use to prepare solutions for pipetting background (no labeled kinase added) and screening plates (+100 nM acrylodan-labeled p38α).
An industrial pipetting robot was used to first dispense […] of pre-diluted compounds into a set of two 384-well small volume assay plates. Subsequently, 15 μl of buffer was added to the background plate while the same volume of buffer containing the labeled kinase was added to the screening plate to detect DFG-out binders. […] A Tecan Safire^2 instrument was used to measure the fluorescence read-out in the 384-well plate format.
A secondary screen was carried out also in 384-well plates using a range of concentrations (100 nM to 50 μM) of each ligand in order to generate binding curves or identify false hits which were picked up due to high degrees of fluorescence interference. […] As before, large volumes of the same buffer were also used to prepare solutions for pipetting background (no labeled kinase added) and screening plates (+100 nM acrylodan-labeled p38α). The pipetting robot was used to first dispense 3.5 μl of pre-diluted compounds into a set of two 384-well small volume assay plates. Each plate contained no more than 7 different compounds identified in the primary screen, each screened at 10 concentrations (100 nM to 50 μM) and 4 wells per concentration. Subsequently, 3.5 μl of buffer was added to the background plate while the same volume of buffer containing the labeled kinase was added to the screening plate. Plates were sealed, incubated and measured as described for the primary screen. […] An exemplary sample plate layout is shown below.
Where indicated, binding curves were also plotted as % p38α bound by the ligand. The % p38α bound is calculated as follows: […]

[2] = molecular target: p38α (Homo sapiens, UniProt Q16539); assay: HTRF kinase assay (CisBio), activity-based, p38α; format: biochemical; conditions: compounds HTS 1-15
Sequence of p38α (Homo sapiens, UniProt Q16539) (Q16539 whole entry): as the sequence (Q16539 whole entry C119S/C162S/A172C/F327L) above, with S119C, S162C, C172A, L327F counted along it

[3] = molecular target: T1, p38α; assay: acrylodan-labeled p38α (ac-p38α) fluorescence binding assay, endpoint Kd measurements; conditions: for Kd: pyrazolourea derivatives of BIRB-796, 50 nM ac-p38α, cuvettes
[4] = molecular target: T1, p38α; assay: ac-p38α real-time fluorescence measurements of binding and dissociation kinetics; conditions: for real-time fluorescence response upon addition to ac-p38α: cuvette method, acrylodan emission at 468 nm; for t1/2 of dissociation: t1/2 = ln 2/kobs
Method: The conditions for such measurements are currently being further optimized (buffer, temperature, protein and inhibitor concentrations, length of incubation).
The addition of excess kinase causes the inhibitor to redistribute, resulting in a net dissociation of inhibitor from ac-p38α and a fluorescence increase which was fit to a first-order function.
After measuring koff for allosteric compounds, Applicants established conditions for measuring the kon of the same compounds. This was accomplished using the cuvette method by adding various concentrations of inhibitor to ac-p38α and fitting the fluorescence decay to a first-order function.

[5] = system: PC3 cells; assay: cell-to-cell contacts by light microscopy, PC3 cells; format: cell-based; conditions: 24 hours treatment; 11c 10 μM, dasatinib 100 nM
Excerpt: (§1) Reduction of cell-to-cell-contacts and cell proliferation in PC3 and DU145 cells by (11c, RL46). […] Total expression of FAK was unchanged while cSrc expression was increased in both cell lines. (b). Cell-to-cell contacts visualized by light microscopy at 10× magnification.

[6] = system: DU145 cells; assay: cell-to-cell contacts by light microscopy, DU145 cells; format: cell-based; conditions: 24 hours treatment; 11c 10 μM, dasatinib 100 nM
Excerpt: as §1

[7] = system: PC3 cells; assay: immunoblot analysis of pSrc and pFAK in PC3 cells; format: cell-based; conditions: 5 hr treatment; 11c 1, 2, 5, 10 μM, dasatinib 100 nM
Method: (§2) PC3 and DU145 were generously provided by Dr. Roman Thomas (Max Planck Institute for Neurological Research, Cologne). The cells were cultured in Dulbecco's modified Eagle's medium (DMEM) supplemented with 10% heat-inactivated fetal bovine serum (FBS) and 100 units/mL penicillin/streptomycin. Cells were cultured at 37° C. in humidified air containing 5% CO2. After inhibitor treatment (5 h), the cells were washed twice in cold phosphate-buffered saline (PBS) and then lysed for 10 min on ice in lysis buffer (20 mM Tris-HCl pH 7.5, 150 mM NaCl, 1% Triton, 1 mM Na2EDTA, 1 mM EGTA, 2.5 mM sodium pyrophosphate, 1 mM β-glycerophosphate, 1 mM Na3VO4, 1 μg/mL leupeptin, 1 mM PMSF, and common protease inhibitors). Subsequently, cells were centrifuged for 20 min at 20000×g and 4° C. The supernatant was subjected to immunoblot analysis.
(§3) Protein concentration was measured using a spectrophotometer (ND-1000, peQLab). Equal amounts of protein were separated by SDS-PAGE and transferred to nitrocellulose membranes. […] After washing, blots were incubated with secondary antibodies and then detected on film using the enhanced chemiluminescence (ECL) detection system.
(§4) Applicants monitored the phosphorylation state of Y416—an autophosphorylation site in the activation loop of cSrc—and Y576/Y577—two residues in the activation loop of focal adhesion kinase (FAK). […]

[8] = system: DU145 cells; assay: immunoblot analysis of pSrc and pFAK in DU145 cells; format: cell-based; conditions: 5 hr treatment; 11c 1, 2, 5, 10 μM, dasatinib 100 nM
Method: as §2, §3, §4

[9] = molecular target: T2, cSrc (Gallus gallus, UniProt P00523, C277S/C483S/C496S/L407C); assay: acrylodan-labeled cSrc fluorescence binding assay; design: species or system chicken; conditions: any concentration
T2 construct: The chicken cSrc gene (residues 251-533); His tag with PreScission site (N, cleaved yes); made in house; host or cells: E. coli BL21(DE3) Codon+RIL
Method: Acrylodan-labeled cSrc (50 nM) was placed into cuvettes with a rapidly stirring mini stir bar while monitoring acrylodan fluorescence (left panel).
Crystal structures of chicken cSrc (kinase domain) in the DFG-in and DFG-out conformations were closely examined to identify a suitable fluorophore attachment site near the N-terminal end of the activation loop of cSrc which would report the binding of allosteric inhibitors by sensing changes in the activation loop conformation. Care was taken to not choose residues that were known phosphorylation sites or other sites that appeared to be critical to maintaining protein stability. A Cys was introduced into the chosen position (L407C) by site-directed mutagenesis while non-specific labeling was minimized by conservatively mutating other solvent exposed Cys into Ser (C277S, C483S, C496S).
Pure cSrc kinase containing the labeling site Cys mutation (L407C) and acrylodan (dissolved in DMF) were combined in buffer (pH 7.0) at a ratio of 1:1.5 protein:fluorophore and allowed to react in the dark overnight at 4° C. […] The labeled cSrc was then aliquoted, kept dark and frozen at −20° C.
Screening initiatives were carried out for acrylodan-labeled cSrc in 384-well plates. Stocks of candidate compounds were prepared in DMSO at 20× the final desired concentration. […]

Kd [1] [µM]	IC50 [2] [µM]	Structure (SMILES)	further results
29.4 ± 4	31.3 ± 17.2	Cc1ccc(NCc2cc3cc4c(cc3n(CC(=O)Nc3ccccc3F)c2=O)OCCO4)cc1 [HTS 10]	
2.3 ± 0.57	2.6 ± 0.92	O=C(c1ccc(CSc2nc3ccncc3[nH]2)cc1)N1CCC(Cc2ccccc2)CC1 [HTS 11]	
	1.1 ± 0.4	O=C(CSc1cn(CCNC(=O)c2cccc(C(F)(F)F)c2)c2ccccc12)Nc1ccc2c(c1)OCCO2 [HTS 13]	
0.301 ± 0.059	> 50	NS(=O)(=O)c1ccc(CCNc2nc3c(-c4cccc(C(F)(F)F)c4)nnn3c3ccccc23)cc1 [HTS 6]	
10.3 ± 2.2	> 50	Fc1cccc(COc2ccc(Nc3ncnc4ccccc34)cc2Cl)c1 [HTS 4]	
		Cc1ccc(-n2nc(C(C)(C)C)cc2NC(=O)Nc2ccc(Cl)cc2)cc1 [12c, RL17]	Kd ([3]; read-out: Kd): 0.034 µM
		Cc1nc(Nc2ncc(C(=O)Nc3c(C)cccc3Cl)s2)cc(N2CCN(CCO)CC2)n1 [Dasatinib]	real-time fluorescence response upon addition to ac-p38α [4]: instantaneous fluorescence response; cell-to-cell contacts and intact cells [5]: markedly reduced cell-to-cell-contacts and fewer intact cells; cell-to-cell contacts and intact cells [6]: markedly reduced cell-to-cell-contacts and fewer intact cells; pSrc and pFAK levels [7]: markedly reduced; pSrc and pFAK levels [8]: markedly reduced
		Fc1ccc(-c2nc3n(c2-c2ccncc2)CCS3)cc1 [SKF86002, reference compound]	real-time fluorescence response upon addition to ac-p38α [4]: instantaneous response
		Cc1ccc(-n2nc(C(C)(C)C)cc2NC(=O)Nc2cccc3ccccc23)cc1 [14a, RL36]	Kd ([3]; read-out: Kd): 0.011 µM
		CC(C)(C)c1cc(NC(=O)Nc2ccc(Cl)cc2)n(-c2ccc(C(F)(F)F)cc2Cl)n1 [7, RL19]	fluorescence response of ac-p38α ([3]; endpoint measurements): complete lack of fluorescence response; Kd [3]: No Binding; fluorescence ratio response [9]: did not respond
24.9 ± 4.9	25.6 ± 4.7	CCc1ccc(NCc2cc3cc(OC)c(OC)cc3n(CC(=O)Nc3cc(C)ccc3C)c2=O)cc1 [HTS 9]	
		Cc1ccc(-n2nc(C(C)(C)C)cc2NC(=O)Nc2ccc(OCCN3CCOCC3)cc2)cc1 [15, RL39]	t1/2 of dissociation [4]: 11.2 min
100 ± 5.8		Clc1cccc(-c2nc3cnccn3c2NC2CCCCC2)c1 [HTS 14]	
	2.6 ± 0.9	CCOC(=O)c1c(C)c(C(=O)N2CCN(Cc3ccccc3)CC2)c(C)n1CC [HTS 8]	
27.5 ± 5.3		Brc1cccc(-c2nc3cnccn3c2NC2CCCC2)c1 [HTS 15]	
1.3 ± 0.08	11 ± 1.5	Cc1ccc(C(=O)NCCC23CC4CC(CC(C4)C2)C3)cc1NC1=NC2CS(=O)(=O)CC2S1 (stereo not drawn) [HTS 12]	t1/2 of binding ([4]; HTS hit, real-time kinetic measurement): ~0.633 min
		Cc1ccc(-n2nc(C(C)(C)C)cc2NC(=O)Nc2ccc(Cl)cc2)cc1Cl [12b, RL18]	Kd ([3]; read-out: Kd): 0.018 µM
3.1 ± 0.91	> 50	O=C(CN1C(=O)c2cccc3cccc1c23)Nc1cccc(C(F)(F)F)c1 [HTS 5]	
		Cc1ccccc1-n1nc(C(C)(C)C)cc1NC(=O)Nc1ccc(Cl)cc1 [12D, RL15]	Kd ([3]; read-out: Kd): 0.347 µM
		CNC(=O)c1cc(Oc2ccc(NC(=O)Nc3ccc(Cl)c(C(F)(F)F)c3)cc2)ccn1 [sorafenib, reference compound]	t1/2 of dissociation [4]: 2.4 min
6.18 ± 2.31	15.3 ± 2.8	CC(=O)Nc1ccc(C(=O)Nc2ccc(-c3nc4cc(NC(=O)c5ccc(NC(C)=O)cc5)ccc4[nH]3)cc2)cc1 [HTS 7]	
		Cc1cccc(-n2nc(C(C)(C)C)cc2NC(=O)Nc2ccc(Cl)cc2)c1 [12a, RL29]	t1/2 of dissociation [4]: 52.3 min

Structure (SMILES)	Kd [1] [µM]	IC50 [2] [µM]	further results
COC(=O)C1=CO[C@@H](C)[C@H]2CN3CCc4c([nH]c5cc(OC)ccc45)[C@H]3C[C@@H]12 [HTS 3]	2.2 ± 0.11	18.3 ± 7.2	
